According to US20060134095A1, “Antioxidative composition and composition for external use” (priority 2003, published 2006):

How the values were obtained:
[1] = hydroxy radical scavenging activity by ESR spin trapping (H2O2/FeSO4, DMPO); details: for Remaining amount of hydroxyl radicals: relative signal intensity (DMPO-OH/MnO); for hydroxyl radical scavenging activity (in words) / hydroxyl radical scavenging activity compared with pro-vitamin C (A2P: ascorbic acid-2-phosphate Na): ESR spin trapping, Table 2
Procedure: (1) With regard to the foregoing samples, according to the direction in the following Table 1, the sample was put into a 1.5 ml Eppendorf tube, H2O2 was added, and reaction was carried out for 30 seconds after the addition for H2O2. Subsequently, the measurement was carried out by ESR, and the hydroxy radical scavenging activities of the fullerenes measured by the ESR spin trapping method were evaluated.
For preparation of the reagents, milli Q was used. As for the ESR apparatus, JES-FR30 (JEOL Co.) was used, and measurement was carried out using a high sensitive ESR water-soluble flat cell (LABOTEC Co.). The measurement conditions of ESR were as follows. Power: 4 mW, Field: 336±5, Sweep Time: 1 min., Modulation Width: 0.32 mT, Amp: 400, Response Time: 0.3 sec. Evaluation was performed with the ratio of the signal amplitude of OH to that of the paramagnetic internal standard, MnO.

[2] = superoxide scavenging activity by ESR spin trapping (hypoxanthine/xanthine oxidase, DMPO)
Procedure: (2) In addition, according to the direction in the following Table 3, each of the samples was put into a 1.5 ml Eppendorf tube, XOD was added, and reaction was carried out for 30 seconds. Subsequently, the measurement was carried out by ESR, whereby the superoxide scavenging activities measured by ESR spin trapping were evaluated. The measuring method was according to the case of the hydroxyl radical.
The measurement conditions of ESR were as follows. Power: 4 mW, Field: 336±5, Sweep Time: 1 min., Modulation Width: 0.1 mT, Amp: 790, Response Time: 0.3 sec. Evaluation was performed with the ratio of the signal amplitude of O2 to that of the paramagnetic internal standard, MnO.

[3] = system: human skin epidermal keratinocytes; test: antioxidative effect against UVB in keratinocytes (CDCFH-DA fluorescence, intracellular peroxide/hydrogen peroxide); assay type: cell-based; details: UVB 40 mJ/cm^2, samples added before irradiation, FIG. 1
Procedure: (3) With regard to various samples, their antioxidative effects against UVB were evaluated by using keratinocytes, a human major cell type.
The results are shown in Pig. 1.

| Molecule | Remaining amount of hydroxyl radicals ([1]; ethanol, concentration not given, control (Milli-Q water) 3.0) | Remaining amount of superoxide anion radical ([2]; relative signal intensity (DMPO-OOH/MnO), ethanol, concentration not given, control (Milli-Q water) 3.0) | hydroxyl radical scavenging activity (in words) [1] | hydroxyl radical scavenging activity compared with pro-vitamin C (A2P: ascorbic acid-2-phosphate Na) [1] | radical scavenging activity in the superoxide test (in words; printed as hydroxyl radical scavenging activities) ([2]; ESR spin trapping, Table 4) | superoxide anion radical scavenging activity compared with pro-vitamin C (A2P) ([2]; ESR spin trapping, Table 4) | Remaining amount of hydroxyl radicals ([1]; sample 9.26 μM, solubilized in 70% ethanol, diluted to 0.2%, control 3.0) | peroxide/hydrogen peroxide scavenging activity in skin cells (antioxidative effect) compared with pro-vitamin C (Asc2P-Na) [3] |
| --- | --- | --- | --- | --- | --- | --- | --- | --- |
| CCO [Ethanol, reference compound] | 1.3 | 7.5 | – | – | – | – | – | – |
| Fullerene modified with PEG [Sample F3] | – | – | significant | slightly superior to or equal to | significant | significantly superior | – | – |
| Hydroxylated fullerene [Sample F6] | – | – | significant | slightly superior to or equal to | – | equal to or more than | 0.6 | equal |
